Measured values published in patent US20090209554A1, “Thiazoliums as transketolase inhibitors” (ARRAY BIOPHARMA INC., priority 2004, published 2009).

How the values were obtained:
[1] = target: T1, transketolase (purified TK apo enzyme) (Homo sapiens, UniProt P29401); assay: TPK-apoTK coupled cell-free TK inhibition assay (pyrophosphorylated compounds competing with TPP); assay type: biochemical; settings: compound enzymatically pyrophosphorylated by TPK1; 100 nM TK, 20 μM TPP
T1 sequence (P29401 1-623): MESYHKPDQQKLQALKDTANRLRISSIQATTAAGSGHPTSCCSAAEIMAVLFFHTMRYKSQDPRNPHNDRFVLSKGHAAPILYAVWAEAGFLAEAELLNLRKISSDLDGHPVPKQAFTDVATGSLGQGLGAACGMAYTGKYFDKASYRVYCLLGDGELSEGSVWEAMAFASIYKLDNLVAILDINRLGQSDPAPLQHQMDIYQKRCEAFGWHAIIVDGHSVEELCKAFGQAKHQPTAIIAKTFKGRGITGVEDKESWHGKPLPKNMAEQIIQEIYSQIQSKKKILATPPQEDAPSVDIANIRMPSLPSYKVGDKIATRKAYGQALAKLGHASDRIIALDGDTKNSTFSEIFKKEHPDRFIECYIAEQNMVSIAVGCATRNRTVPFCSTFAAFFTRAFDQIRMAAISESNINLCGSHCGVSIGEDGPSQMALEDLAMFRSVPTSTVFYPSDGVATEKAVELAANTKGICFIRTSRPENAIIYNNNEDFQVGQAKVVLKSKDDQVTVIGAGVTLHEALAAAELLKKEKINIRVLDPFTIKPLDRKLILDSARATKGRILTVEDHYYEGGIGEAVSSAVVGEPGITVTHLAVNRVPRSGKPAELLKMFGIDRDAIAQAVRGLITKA
Procedure: Determining Inhibition Constants of TPP Mimetics in Cell Free Assay (Purified TK apo Enzyme) Compounds scored as TPK1 substrates were then enzymatically converted to pyrophosphate and assessed for an ability to compete with TPP in inhibiting TK activity. The TK inhibition assay was carried out as follows. The pyrophosphorylation reaction mix consisted of 50 mM HEPES, 1 mM DTT, 1 mM MgCl2, pH 8.0, 1 to 10 mM thiamine analog, and 40 mM Mg-ATP. TKP1 (46.2 μg) was added in 10 μL aliquots every hour for 5 hours. The reaction mix was then incubated overnight at 4° C. TPK1 was removed by ultra-filtration using a 10,000 MWCO filter. The extent of reaction was monitored as described above. […] The above reaction mix (40 μL) was placed in a well of a Costar 3695 half-area plate and pre-incubated at room temperature for 30 min. It was then incubated for 2 minutes at 30° C. The reaction was initiated with the addition of 10 μL pentose phosphates (xylulose 5-phosphate and ribose 5-phosphate) with a final concentration of 0.5 mM. The reaction was monitored at 340 nm using a Molecular Devices Spectramax M2 plate reader. “TPK-TK” in the second column in Table 1 designates the thiamine pyrophosphate kinase/transketolase coupled reaction.

[2] = target: T2, transketolase (TK) in colon carcinoma HCT116 cells (Homo sapiens, UniProt P29401); assay: Cellular transketolase inhibition assay in HCT116; assay type: cell-based; settings: colon carcinoma HCT116, thiamine-free DMEM, 48 h after compound treatment, TK activity in lysate
T2 construct: endogenous in cells; host or cells: HCT116
T2 sequence (P29401 1-623): T1 sequence (P29401 1-623)
Procedure: Determining Inhibition Constants of TPP Mimetics in Cellular Assay
Log-phase cells were trypsinized, washed and resuspended in thiamine-free DMEM. Optimization of the initial cell counts was carried out for each cell line prior to IC50 measurements. […] Using this initial cell count, IC50 could be monitored for six days.
Media containing 8,000 cells (95 μl) were used to seed individual wells in a 96-well clear-bottom cell cultured-treated sterile plate. Inhibitor compounds were dissolved in 100% DMSO as 10 mM solutions. Serial dilutions were then made in 100% DMSO to make up a 100× stock, then diluted to 20× in double-deionized H2O (ddH2O). Twenty-four hours after seeding, 5 μl of 20× inhibitor compound stock solution was added to the cells so that the final concentration of DMSO was 1%. Media were changed after 24 hours. Forty-eight hours after inhibitor compound treatment, the plates were inverted to remove media and blotted on a paper towel. The plates were then either subjected to enzymatic reactions immediately or were frozen at −20° C. for future assays.
Lysis buffer (20 mM HEPES, pH 7.5, 1 mM EDTA, 0.2 g/l Triton X-100® and 0.2 g/L sodium deoxycholate, supplemented with 1 mM DTT and 1 mM PMSF just before use, 80 μl) were added to each well of the assay plate and allow cell lysis at RT with shaking. Then 15 ul of 5× assay buffer containing final concentrations of 50 mM HEPES, 40 mM KCl, 2.5 mM MgCl2, 5 mM NaArsenate, 1 mM NAD, 2 unit/ml glyceraldehyde-3-phosphate dehydrogenase (GAPDH) was added to the 80 ul of lysate. Reaction kinetics were monitored on a fluorescent plate reader to allow any possible background activity via GAPDH to burn out. Then 5 ul of substrate mix containing final concentrations of 0.5 mM ribose-5-phosphate and 0.5 mM xylulose-5-phosphate was added to initiate the reaction. Monitor reaction kinetics were monitored using a fluorescent plate reader and the slope of the initial linear range was recorded as the velocity of the reaction (FU/min). Enzymatic inhibition was expressed as percent of control wells that were not treated with compounds. The values (y) were plotted as function of the log concentration (x) and fitted to a sigmoidal dose-response curve with variable slopes that bears the equation: y-bottom+(top-bottom)/(1+10̂((log EC50−x)*hillslope)).

| SMILES | IC50 [1] | IC50 [2] |
| --- | --- | --- |
| Cc1c(CCO)sc[n+]1Cc1ccccc1 | 0.336 µM | > 100 µM |
| Cc1c(CCO)sc[n+]1Cc1ccccc1[N+](=O)[O-] | 0.109 µM | > 100 µM |
| Cc1c(CCO)sc[n+]1Cc1ccccc1N | 0.198 µM | > 100 µM |
| Cc1c(CCO)sc[n+]1Cc1cc([N+](=O)[O-])ccc1O |  | > 100 µM |
| Cc1c(CCO)sc[n+]1Cc1ccc(C(=O)O)cc1 |  | > 100 µM |
| CC(=O)Nc1ccc(C[n+]2csc(CCO)c2C)cc1 | 0.00883 µM | 24.3 µM |
| Cc1c(CCO)sc[n+]1Cc1ccccn1 |  | > 100 µM |
| Cc1c(CCO)sc[n+]1Cc1cccc(N2C(=O)c3ccccc3C2=O)n1 |  | > 100 µM |
| Cc1c(CCO)sc[n+]1Cc1cccnc1 | 0.0707 µM | 0.731 µM |
| Cc1c(CCO)sc[n+]1Cc1cccnc1N | 0.0365 µM | 0.111 µM |
| Cc1c(CCO)sc[n+]1Cc1cccnc1C#N | 0.123 µM | > 33 µM |
| Cc1c(CCO)sc[n+]1Cc1ccc(C(F)(F)F)nc1N | 0.104 µM | 0.119 µM |
| Cc1c(CCO)sc[n+]1Cc1ccc(Cl)nc1N |  | 0.156 µM |
| Cc1cnc(N)c(C[n+]2csc(CCO)c2C)c1 | 0.109 µM | 0.862 µM |
| Cc1c(CCO)sc[n+]1Cc1ccc(C(F)(F)F)nc1 | 0.387 µM | 0.471 µM |
| Cc1c(CCO)sc[n+]1Cc1ccc(N)nc1 | 0.00695 µM | 1.61 µM |
| Cc1c(CCO)sc[n+]1Cc1ccc(N2C(=O)c3ccccc3C2=O)nc1 | 0.143 µM | 3.15 µM |
| Cc1cncc(C[n+]2csc(CCO)c2C)c1 |  | 37.8 µM |
| Cc1c(CCO)sc[n+]1Cc1cncc(C#N)c1 | 0.294 µM | 119 µM |
| COC(=O)c1cncc(C[n+]2csc(CCO)c2C)c1 | 0.382 µM | > 100 µM |

| SMILES | IC50 [1] | IC50 [2] |
| --- | --- | --- |
| Cc1c(CCO)sc[n+]1Cc1cnccc1N | 0.0642 µM | 23.9 µM |
| Cc1ccc(C[n+]2csc(CCO)c2)c(N)n1 | 0.0291 µM | 9.54 µM |
| Cc1ccc(C[n+]2csc(CCO)c2C)c(N)n1 | 0.022 µM | 0.03 µM |
| CC(=O)OCCc1sc[n+](Cc2ccc(C)nc2N)c1C |  | 0.006 µM |
| CCc1ccc(C[n+]2csc(CCO)c2C)c(N)n1 |  | 0.074 µM |
| Cc1c(CCO)sc[n+]1Cc1ccc(C#N)nc1N | 0.0571 µM | 0.354 µM |
| Cc1cc(C)c(C[n+]2csc(CCO)c2)c(N)n1 |  | 12.5 µM |
| Cc1cc(C)c(C[n+]2csc(CCO)c2C)c(N)n1 | 0.0338 µM | 0.131 µM |
| CC(=O)Nc1ccc(C[n+]2csc(CCO)c2C)c(N)n1 | 0.0225 µM | 0.803 µM |
| COc1ccc(C[n+]2csc(CCO)c2C)c(NC(C)=O)n1 |  | 170 µM |
| Cc1ccc(C[n+]2cc(CCO)sc2C)c(N)n1 | 0.0356 µM | 0.489 µM |
| Cc1cc(C)c(C[n+]2cc(CCO)sc2C)c(N)n1 |  | 26.3 µM |
| CCc1sc(CCO)c(C)[n+]1Cc1ccc(C)nc1N | 0.0755 µM | 0.026 µM |
| Cc1ccc(C[n+]2c(C(C)O)sc(CCO)c2C)c(N)n1 (stereo not shown) | 0.0914 µM | 0.034 µM |
| Cc1ccc(C[n+]2c(-c3ccc4c(c3)OCO4)sc(CCO)c2C)c(N)n1 |  | 25.5 µM |
| Cc1ccc(C[n+]2c(Cc3cccnc3)sc(CCO)c2C)c(N)n1 |  | 0.838 µM |
| CCc1c(CCO)sc[n+]1Cc1ccc(C)nc1N |  | 1.72 µM |
| Cc1ccc(C[n+]2csc(CCO)c2CO)c(N)n1 | 0.0251 µM | 0.236 µM |
| Cc1ccc(C[n+]2c(C)sc(CO)c2C)c(N)n1 |  | 0.237 µM |
| Cc1ccc(C[n+]2csc(C(O)CO)c2C)c(N)n1 (stereo not shown) | 0.0534 µM | 0.269 µM |

| SMILES | IC50 [1] | IC50 [2] |
| --- | --- | --- |
| Cc1ccc(C[n+]2csc([C@@H](O)CO)c2C)c(N)n1 | 0.0268 µM | 2.2 µM |
| Cc1ccc(C[n+]2csc([C@H](O)CO)c2C)c(N)n1 | 0.0281 µM | 0.062 µM |
| Cc1cc(C)c(C[n+]2csc(C(O)CO)c2C)c(N)n1 (stereo not shown) | 0.09 µM | 3.16 µM |
| Cc1ccc(C[n+]2csc(CCCO)c2C)c(N)n1 |  | 1.03 µM |
| Cc1ccc(C[n+]2csc(CCC#N)c2C)c(N)n1 |  | 2.17 µM |
| COC(=O)CCc1sc[n+](Cc2ccc(C)nc2N)c1C |  | 2.33 µM |
| Cc1c(CCO)sc[n+]1Cc1ccncc1 | 0.421 µM | > 100 µM |
| Cc1c(CCO)sc[n+]1Cc1cncnc1 | 1.43 µM | > 100 µM |
| Cc1ncc(C[n+]2c(C)sc(CCO)c2C)c(N)n1 |  | 0.214 µM |
| Cc1ncc(C[n+]2c(C(C)O)sc(CCO)c2C)c(N)n1 (stereo not shown) | 0.851 µM | > 100 µM |
| COc1ncc(CO)c(N)n1 |  | > 100 µM |
| Cc1ncc(C[n+]2csc(CCO)c2C)c(=O)[nH]1 |  | 0.076 µM |
| Cc1c(CCO)sc[n+]1Cc1nccnc1N | 0.0612 µM | 16.5 µM |
| Cc1cnc(C[n+]2csc(CCO)c2C)c(N)n1 | 0.0152 µM | 0.408 µM |
| Cc1cc(C[n+]2csc(CCO)c2C)no1 |  | 5.15 µM |
| Cc1c(CCO)sc[n+]1Cc1ccsc1C#N | 0.138 µM | > 33 µM |
| Cc1c(CCO)sc[n+]1Cc1ccsc1C(N)=O |  | > 33 µM |
| Cc1ccc(C[n+]2c(C)sc(CCO)c2C)c(N)n1 [drawing 48] |  | 0.031 µM |
| Cc1ccc(C[n+]2c(C)sc(CCO)c2C)c(N)n1 [drawing 55] | 0.0246 µM | 0.049 µM |
